# Test results reported in patent US5137871A, “Treatment to reduce edema for brain and musculature injuries” (Regents of the University of California, priority 1989, dated 1992).
# No end group written: not given here.
# Tests used:
# blood pressure = settings: reported in prior art; cited from earlier work
# ACTH secretion = settings: reported in prior art; cited from earlier work
# [1] = tested on: brain vascular permeability after cold injury; experiment: Cold (freeze) injury to brain, vascular leakage by Monastral blue staining; format: in vivo, rat
# Description: An in vivo model of injury to study brain edema has been developed as a reproducible edema model, which has the features of immediate cortical damage followed by the subsequent development of brain edema. This model is described by Chan et al., Brain Research 277, pp. 329-337 (1983). The model uses rats which are anesthetized. A 2.5 cm incision is made over the sagittal suture and the bone of the right hemisphere exposed. A 60 mm^2 plate attached to a brass cup filled with dry ice-acetone mixture, with a temperature of -50° C., is applied to the rat skull for one minute. The animals are sacrificed at various intervals after the onset of cold-injury. A dye is administered intravenously before the freezing. Cortical slices are then obtained of the brain.
# 16 male rats were randomly divided into eight pairs and one rat in each pair received either saline or CRF (subcutaneously twice at 30 μg/kg, 30 min and 10 min before cold injury). The animals were anesthetized with sodium pentobarbital, 60 mg/kg intraperitoneally, and injected with Monastral blue, 60 mg/kg intravenously. A cold probe was applied onto the skull for […] and the brains taken out 1 hour after cold injury. The staining of brain tissues with Monastral blue, a colloidal pigment that gets trapped between the albuminal surface of the endothelial cell and the basement membrane, was proportional to the degree of vascular leakage. The results from the first pair are shown as FIG. 1.
# The size of the lesion, measured as area in mm^2, and the degree of staining intensity, were quantified using an image-analysis software program called JAVA (Jandel Corporation, San Rafael, Calif.). The stain intensity, given in arbitrary units, was internally calibrated using Monastral blue solutions (1-30 mg/ml) placed on white filter paper. Values are mean ± S.E.M.
# [2] = tested on: brain edema after freeze injury; experiment: Freeze injury to cerebral cortex, brain water and sodium content (brain edema); format: in vivo, rat; settings: CRF 30 μg/kg s.c. 2×, tissues 3 hr after injury, ± S.E.M., N = 5
# Description: In a second set of experiments, the brain surface, namely the cerebral cortex, was injured by freezing and the water and sodium content were measured in the cerebral cortex and in the basal ganglia, a part of the brain away from the freeze zone. The water and sodium content of the brain tissue served as an index of brain edema. After freeze injury, the water and sodium content of the cerebral cortex were evaluated relative to non-frozen tissues. CRF administered in two separate doses of 30 μg/kg subcutaneously, one dose 15 min. before the injury and the second dose 90 min. after the first dose, inhibited the two indices of brain edema.
# Male SpragueDawley rats, 300-325 g, anesthetized with
# ketamineacepromazine, were injected saline or CRF (30 μg/kg s.c.
# 2×) and injury to cerebral cortex was produced by applying a cold
# probe to the skull for 1 min. Brain tissues were obtained 3 hr later and
# analyzed for water and sodium content.
# [3] = tested on: muscle vascular permeability after celiotomy; experiment: Vascular leakage after celiotomy (4 cm midline incision through abdominal muscle wall), Monastral blue; format: in vivo, rat; settings: for Area / Intensity / Lesion Size: tissues taken 0.5 hr after surgery; for vascular leakage (lesion size) relative to that of the saline-treated group: Table III
# Description: Experiments were conducted on male Sprague-Dawley rats 243±15 gm (S.D., Simonsen Labs., Gilroy, Calif.) anesthetized with sodium pentobarbital, 60 mg/kg i.p. Monastral blue, 60 mg/kg i.v., was injected 0.2 ml/100 g, 3 min. before a 4 cm midline incision through the abdominal muscle wall (celiotomy). Saline or CRF was administered to randomized pairs with N=8 rats per group. The size of the lesion, measured as area in mm^2, and its light intensity, were quantified using the JAVA image-analysis software program. The light intensity, given in arbitrary units, was internally calibrated using Monastral blue solutions (1-30 mg/ml) placed on white filter paper. Values are mean ± S.E.M. FIG. 2 illustrates the respective amount of vascular permeability for one pair of rats (control and treated). Tables III and IV set out data from these experiments.
# CRF: injected at various doses subcutaneously 30 min
# before a 4 cm midline incision, tissues taken 0.5 hr
# CRF: 30 μg/kg s.c. injected 2 hr before a 4 cm midline
# incision, tissues taken 0.5 hr after surgery
# [4] = tested on: PAF-acether induced vascular leakage in muscle; experiment: Vascular leakage produced by PAF-acether injected subcutaneously into the abdomen; format: in vivo, rat
# Description: CRF: 30 μg/kg s.c. injected 30 min before subcutaneous
# injection of PAF-acether (1 μg/0.1 ml/rat) into the
# abdomen; muscle removed 0.5 hr later.
# edema of rat pawskin = settings: mediators injected into the rat pawskin; previously shown; cited from earlier work
# [5] = rat, CRF 30 μg/kg s.c. twice, 30 min and 10 min before cold injury, brains taken 1 hour after injury, mean ± S.E.M.
# [6] = CRF 15 μg/kg s.c. 30 min before incision
# [7] = CRF 30 μg/kg s.c. 30 min before incision
# [8] = CRF 30 μg/kg s.c. 2 hr before incision
# [9] = CRF 60 μg/kg s.c. 30 min before incision
# [10] = CRF 30 μg/kg s.c. 30 min before PAF-acether 1 μg/0.1 ml/rat s.c., muscle removed 0.5 hr later
compound,measurement,setting,value
CC[C@H](C)[C@H](NC(=O)[C@@H](NC(=O)[C@H](CC(=O)O)NC(=O)[C@H](CC(C)C)NC(=O)[C@H](CC(C)C)NC(=O)[C@H](CC(C)C)NC(=O)[C@H](CCCNC(=N)N)NC(=O)[C@H](CC(N)=O)NC(=O)[C@H](CC(N)=O)NC(=O)[C@H](C)NC(=O)[C@H](C)NC(=O)[C@H](CCC(N)=O)NC(=O)[C@H](CCC(N)=O)NC(=O)[C@H](CCCCN)NC(=O)[C@H](CCC(=O)O)NC(=O)[C@H](CCCCN)NC(=O)[C@H](CCC(=O)O)NC(=O)[C@H](CCC(N)=O)NC(=O)[C@H](CCCCN)NC(=O)[C@H](CCC(=O)O)NC(=O)[C@@H](NC(=O)[C@H](CCC(=O)O)NC(=O)[C@@H](NC(=O)[C@H](CCSC)NC(=O)[C@H](CCCCN)NC(=O)[C@H](CCCNC(=N)N)NC(=O)[C@H](CC(C)C)NC(=O)[C@H](CC(C)C)NC(=O)[C@H](CCC(=O)O)NC(=O)[C@H](CC(C)C)NC(=O)[C@H](CO)NC(=O)[C@H](CC(C)C)NC(=O)[C@H](CC(=O)O)NC(=O)[C@@H](NC(=O)[C@H](CO)NC(=O)[C@@H](NC(=O)[C@@H]1CCCN1C(=O)[C@@H]1CCCN1C(=O)CNC(=O)[C@@H]1CCC(=O)N1)[C@@H](C)CC)[C@@H](C)CC)[C@@H](C)CC)[C@@H](C)CC)[C@@H](C)O)C(N)=O [Sauvagine],effect on blood pressure,blood pressure,lowering blood pressure
same,effect on ACTH secretion,ACTH secretion,stimulating the secretion of ACTH
Ser-Gln-Glu-Pro-Pro-Ile-Ser-Leu-Asp-Leu-Thr-Phe-His-Leu-Leu-Arg-Glu-Val-Leu-Glu-Met-Thr-Lys-Ala-Asp-Gln-Leu-Ala-Gln-Gln-Ala-His-Ser-Asn-Arg-Lys-Leu-Leu-Asp-Ile-Ala-NH2 (SQEPPISLDLTFHLLREVLEMTKADQLAQQAHSNRKLLDIA-NH2) [oCRF],effect on blood pressure,blood pressure,lower blood pressure
"Ser-Glu-Glu-Pro-Pro-Ile-Ser-Leu-Asp-Leu-Thr-Phe-His-Leu-Leu-Arg-Glu-Val-Leu-Glu-Met-Ala-Arg-Ala-Glu-Gln-Leu-Ala-Gln-Gln-Ala-His-Ser-Asn-Arg-Lys-Leu-Met-Glu-Ile-Ile-NH^2 (SEEPPISLDLTFHLLREVLEMARAEQLAQQAHSNRKLMEII-NH2) [CRF, 41 amino acid neuropeptide]",lesion size relative to that of the saline-treated group,"[1]; Table I, brain cold injury, CRF 30 μg/kg s.c. twice",44%
same,correct assignment of brains to saline or CRF group by an observer unaware of pretreatment,"[1]; eight pairs of rats, more damaged vs less damaged brain",8 out of 8
same,Area,[1]; [5],20.8 ± 1.2 mm^2
same,Intensity (staining intensity),[1]; [5],2.0 ± 0.05 arbitrary units
same,Lesion Size,[1]; [5],43 ± 3
same,SODIUM,[2]; BASAL GANGLIA (non-injured),215 ± 9 mEg/kg dry wt
same,WATER CONTENT,[2]; BASAL GANGLIA (non-injured),76 ± 1%
same,SODIUM,[2]; CEREBRAL CORTEX (injured),271 ± 8 mEg/kg dry wt
same,WATER CONTENT,[2]; CEREBRAL CORTEX (injured),77 ± 4%
same,Area,[3]; [6],505 ± 16 mm^2
same,Intensity,[3]; [6],2.0 ± 0.03 arbitrary units
same,Lesion Size,[3]; [6],1031 ± 44
same,Area,[3]; [7],361 ± 18 mm^2
same,Intensity,[3]; [7],1.9 ± 0.05 arbitrary units
same,Lesion Size,[3]; [7],676 ± 47
same,Area,[3]; [8],477 ± 31 mm^2
same,Intensity,[3]; [8],1.9 ± 0.03 arbitrary units
same,Lesion Size,[3]; [8],919 ± 51
same,Area,[3]; [9],257 ± 3 mm^2
same,Intensity,[3]; [9],1.8 ± 0.05 arbitrary units
same,Lesion Size,[3]; [9],468 ± 19
same,vascular leakage (lesion size) relative to that of the saline-treated group,[3]; [6],63%
same,vascular leakage (lesion size) relative to that of the saline-treated group,[3]; [7],42%
same,vascular leakage (lesion size) relative to that of the saline-treated group,[3]; [9],29%
same,lesion size relative to that of the saline-treated group,"[3]; Table IV, CRF 30 μg/kg s.c. 2 hr before incision",59%
same,Area,[4]; [10],188 ± 16 mm^2
same,Intesnity,[4]; [10],1.4 ± 0.05
same,Lesion Size,[4]; [10],260 ± 26
same,muscle lesion size relative to that of the saline-treated control group,"[4]; Table V, CRF 30 μg/kg s.c.",44%
same,"effect on edema produced by serotonin, substance P, bradykinin, neurotensin, histamine",edema of rat pawskin,antagonize the edema-producing properties
same,effect on ACTH secretion,ACTH secretion,stimulates ACTH release from pituitary cells
H-Asn-Asp-Asp-Pro-Pro-Ile-Ser-Ile-Asp-Leu-Thr-Phe-His-Leu-Leu-Arg-Asn-Met-Ile-Glu-Met-Ala-Arg-Asn-Glu-Asn-Gln-Arg-Glu-Gln-Ala-Gly-Leu-Asn-Arg-Lys-Tyr- Leu-Asp-Glu-Val-NH2 (H-NDDPPISIDLTFHLLRNMIEMARNENQREQAGLNRKYLDEV-NH2) [carp urotensin],effect on blood pressure,blood pressure,lower blood pressure
same,effect on ACTH secretion,ACTH secretion,stimulate ACTH
